Laboratory results as given in publication PMC4721142, “Randomized controlled studies on the efficacy of antiarthritic agents in inhibiting cartilage degeneration and pain associated with progression of osteoarthritis in the rat” (Arthritis Research & Therapy, 2016).
Values joined by “and” are separate entries in the source; they are usually repeats but may differ in a detail not shown here. Identical values can stand only once.

Assays:
MMT/MCLT rat model of OA [1] = test: MMT/MCLT trial 1 histopathology (same doses); type: in vivo; conditions: vs saline group; tacrolimus 0.6 mg/kg, fluocinolone 10 μg/kg
Excerpt: (§1) For MMT/MCLT rat knee joints, sections were cut in 200-μm steps; stained with toluidine blue (also with a right and left half per section); and similarly analyzed for cartilage degeneration, proteoglycan loss, collagen damage, and osteophyte formation. Results were averaged across the three sections for an overall semiquantitative score. Regional differences across the tibial plateau were taken into consideration by dividing each section into three zones delineated using an ocular micrometer (outside, middle, and inside). Scores were based on the percentage of area affected within the zone.
(§2) Cartilage degeneration in the tibia was scored on a 5-point scale as detailed in the Methods section of Additional file 1. The total extent of degeneration of the tibial plateau was measured (in micrometers) and included an analysis of cell loss, proteoglycan loss, and collagen damage. Significant cartilage degeneration reflecting any degeneration extending through more than 50 % of the cartilage thickness was also measured. Collagen damage across the medial tibial plateau (the most severely affected section of the two halves) was also quantified.
(§3) Osteophytes and femoral cartilage degeneration were analyzed as detailed in Additional file 1. Scoring of the osteophytes and categorization into small, medium, and large was performed using an ocular micrometer. The actual osteophyte measurement (tidemark to farthest distance point extending toward the synovium) was also recorded. The femoral cartilage degeneration score and the three-zone sum of the tibial cartilage degeneration scores (mean of three levels) were summed to create a total cartilage degeneration score. The mean osteophyte score for each joint was added to this value to create a total joint score. […]
(§4) Histopathology MMT/MCLT Model

MMT/MCLT rat model of OA [2] = test: MMT/MCLT trial 2 histopathology (same doses); type: in vivo; design: key to Tibial cartilage degeneration score, 3-zone total: sum of three tibial zone scores (each on 5-point scale); key to Total joint score w/o femur / Total joint score: sum: cartilage degeneration scores + mean osteophyte score; conditions: for Bone score / Depth ratio any matrix change, mean / Depth ratio any matrix change, zone 2 / Femoral cartilage degeneration score / Tibial cartilage degeneration score, 3-zone total / Tibial cartilage degeneration score, zone 1 / Tibial cartilage degeneration score, zone 2 / Tibial cartilage degeneration score, zone 3 / Tibial cartilage degeneration width, substantial (>50% thickness) / Tibial cartilage degeneration width, total / Tibial osteophyte measure / Tibial osteophyte score / Total joint score / Total joint score w/o femur: mean; for % decrease, bone score / % decrease, depth ratio mean / % decrease, femoral cartilage degeneration score / % decrease, osteophyte measure / % decrease, osteophyte score / % decrease, substantial degeneration width / % decrease, tibial score 3-zone total / % decrease, tibial score zone 1 / % decrease, tibial score zone 3 / % decrease, total degeneration width / % decrease, total joint score / % decrease, total joint score w/o femur / % decrease, depth ratio zone 2 / % decrease, tibial score zone 2: vs saline group
Excerpt: as §1, §2, §3, §4

[3] = test system: Normal human articular chondrocytes; test: Cytotoxicity to chondrogenic pellets (CellTiter-Blue)
Method: Differentiated chondrogenic pellets were used both to test the ability of drugs to block MMP-13 activity and to test for drug toxicity. […] Supernatants were collected and analyzed for MMP-13 using an enzyme-linked immunosorbent assay (GE Healthcare Life Sciences, Little Chalfont, UK). Cytotoxicity to pellets was assessed using CellTiter-Blue (Promega).

SW982 = test: Synovial toxicity (CellTiter-Glo), with or without TNF-α
Method: Viability was measured with the CellTiter-Glo luminescent viability assay (Promega). […] To more accurately predict the effects of the drugs on osteoarthritic synovium, cells were tested with or without TNF-α (20 ng/ml; BioSource).
In Vitro Toxicity Testing with a Synovial Cell Line
Compounds were tested for synovial toxicity using SW982 cells alone or in the presence of TNF as

[4] = tacrolimus 30 ng i.a., clonidine 100 μg/kg s.c.
[5] = i.a., tacrolimus 15 ng, curcumin 30 μg

For `C=CC[C@@H]1/C=C(\C)C[C@H](C)C[C@H](OC)[C@H]2O[C@@](O)(C(=O)C(=O)N3CCCC[C@H]3C(=O)O[C@H](/C(C)=C/[C@@H]3CC[C@@H](O)[C@H](OC)C3)[C@H](C)[C@@H](O)CC1=O)[C@H](C)C[C@@H]2OC` [Tacrolimus], the “% decrease, tibial score zone 1” value (MMT/MCLT rat model of OA [1]) was 44%, the “% decrease, tibial score zone 2” value (MMT/MCLT rat model of OA [1]) was 45% and the “% decrease, tibial score zone 3” value (MMT/MCLT rat model of OA [1]) was 100%. The “% decrease, total degeneration width” value (MMT/MCLT rat model of OA [1]) was 28%, the “% decrease, total joint score” value (MMT/MCLT rat model of OA [1]) was 43% and the “% decrease, total joint score w/o femur” value (MMT/MCLT rat model of OA [1]) was 43%. For the same molecule, the Bone score (MMT/MCLT rat model of OA [2]; i.a., tacrolimus 15 ng) was 2.60, the “Depth ratio any matrix change, mean” value (MMT/MCLT rat model of OA [2]; i.a., tacrolimus 15 ng) was 0.25 and the “Depth ratio any matrix change, zone 2” value (MMT/MCLT rat model of OA [2]; i.a., tacrolimus 15 ng) was 0.06. The “Femoral cartilage degeneration score” value (MMT/MCLT rat model of OA [2]; i.a., tacrolimus 15 ng) was 0.87 and 0.87 ± 0.36, the “Tibial cartilage degeneration score, 3-zone total” value (MMT/MCLT rat model of OA [2]; i.a., tacrolimus 15 ng) was 4.43 and the “Tibial cartilage degeneration score, zone 1” value (MMT/MCLT rat model of OA [2]; i.a., tacrolimus 15 ng) was 3.37. The “Tibial cartilage degeneration score, zone 2” value (MMT/MCLT rat model of OA [2]; i.a., tacrolimus 15 ng) was 1.07, the “Tibial cartilage degeneration score, zone 3” value (MMT/MCLT rat model of OA [2]; i.a., tacrolimus 15 ng) was 0.00 and the “Tibial cartilage degeneration width, substantial (>50% thickness)” value (MMT/MCLT rat model of OA [2]; i.a., tacrolimus 15 ng) was 536.67 µm. For the same molecule, the “Tibial cartilage degeneration width, total” value (MMT/MCLT rat model of OA [2]; i.a., tacrolimus 15 ng) was 1060.00 µm, the Tibial osteophyte measure (MMT/MCLT rat model of OA [2]; i.a., tacrolimus 15 ng) was 446.67 µm and the Tibial osteophyte score (MMT/MCLT rat model of OA [2]; i.a., tacrolimus 15 ng) was 3.30. For the same molecule, the Total joint score (MMT/MCLT rat model of OA [2]; i.a., tacrolimus 15 ng) was 8.60 and 8.60 ± 0.63, the “Total joint score w/o femur” value (MMT/MCLT rat model of OA [2]; i.a., tacrolimus 15 ng) was 7.73 and the Bone score (MMT/MCLT rat model of OA [2]; [4]) was 2.60. For the same molecule, the “Depth ratio any matrix change, mean” value (MMT/MCLT rat model of OA [2]; [4]) was 0.28, the “Depth ratio any matrix change, zone 2” value (MMT/MCLT rat model of OA [2]; [4]) was 0.08 and the “Femoral cartilage degeneration score” value (MMT/MCLT rat model of OA [2]; [4]) was 0.80 and 0.8 ± 0.19. The “Tibial cartilage degeneration score, 3-zone total” value (MMT/MCLT rat model of OA [2]; [4]) was 4.73, the “Tibial cartilage degeneration score, zone 1” value (MMT/MCLT rat model of OA [2]; [4]) was 3.50 and the “Tibial cartilage degeneration score, zone 2” value (MMT/MCLT rat model of OA [2]; [4]) was 1.20. For the same molecule, the “Tibial cartilage degeneration score, zone 3” value (MMT/MCLT rat model of OA [2]; [4]) was 0.03, the “Tibial cartilage degeneration width, substantial (>50% thickness)” value (MMT/MCLT rat model of OA [2]; [4]) was 576.67 µm and the “Tibial cartilage degeneration width, total” value (MMT/MCLT rat model of OA [2]; [4]) was 1090.00 µm. The Tibial osteophyte measure (MMT/MCLT rat model of OA [2]; [4]) was 457.33 µm, the Tibial osteophyte score (MMT/MCLT rat model of OA [2]; [4]) was 3.37 and the Total joint score (MMT/MCLT rat model of OA [2]; [4]) was 8.90 and 8.90 ± 0.66. For the same molecule, the “Total joint score w/o femur” value (MMT/MCLT rat model of OA [2]; [4]) was 8.10, the “% decrease, width of severe collagen degeneration” value (MMT/MCLT rat model of OA [2]; tacrolimus 15 ng i.a.) was 86% and the “% decrease, width of severe collagen degeneration” value (MMT/MCLT rat model of OA [2]; tacrolimus 30 ng i.a.) was 87%. For the same molecule, the “% decrease, bone score” value (MMT/MCLT rat model of OA [2]; i.a., tacrolimus 15 ng) was 19%, the “% decrease, depth ratio mean” value (MMT/MCLT rat model of OA [2]; i.a., tacrolimus 15 ng) was 23% and the “% decrease, femoral cartilage degeneration score” value (MMT/MCLT rat model of OA [2]; i.a., tacrolimus 15 ng) was 19%. The “% decrease, osteophyte measure” value (MMT/MCLT rat model of OA [2]; i.a., tacrolimus 15 ng) was 5%, the “% decrease, osteophyte score” value (MMT/MCLT rat model of OA [2]; i.a., tacrolimus 15 ng) was 7% and the “% decrease, substantial degeneration width” value (MMT/MCLT rat model of OA [2]; i.a., tacrolimus 15 ng) was 17%. The “% decrease, tibial score 3-zone total” value (MMT/MCLT rat model of OA [2]; i.a., tacrolimus 15 ng) was 21%, the “% decrease, tibial score zone 1” value (MMT/MCLT rat model of OA [2]; i.a., tacrolimus 15 ng) was 10% and the “% decrease, tibial score zone 3” value (MMT/MCLT rat model of OA [2]; i.a., tacrolimus 15 ng) was 100%. The “% decrease, total degeneration width” value (MMT/MCLT rat model of OA [2]; i.a., tacrolimus 15 ng) was 12%, the “% decrease, total joint score” value (MMT/MCLT rat model of OA [2]; i.a., tacrolimus 15 ng) was 16% and the “% decrease, total joint score w/o femur” value (MMT/MCLT rat model of OA [2]; i.a., tacrolimus 15 ng) was 16%. For the same molecule, the “% decrease, depth ratio zone 2” value (MMT/MCLT rat model of OA [2]; [5]) was 59%, the “% decrease, tibial score zone 2” value (MMT/MCLT rat model of OA [2]; [5]) was 42% and the “% decrease, bone score” value (MMT/MCLT rat model of OA [2]; tacrolimus 30 ng i.a.) was 19%. The “% decrease, depth ratio mean” value (MMT/MCLT rat model of OA [2]; tacrolimus 30 ng i.a.) was 15%, the “% decrease, depth ratio zone 2” value (MMT/MCLT rat model of OA [2]; tacrolimus 30 ng i.a.) was 50% and the “% decrease, femoral cartilage degeneration score” value (MMT/MCLT rat model of OA [2]; tacrolimus 30 ng i.a.) was 25%. For the same molecule, the “% decrease, osteophyte measure” value (MMT/MCLT rat model of OA [2]; tacrolimus 30 ng i.a.) was 3%, the “% decrease, osteophyte score” value (MMT/MCLT rat model of OA [2]; tacrolimus 30 ng i.a.) was 6% and the “% decrease, substantial degeneration width” value (MMT/MCLT rat model of OA [2]; tacrolimus 30 ng i.a.) was 11%. For the same molecule, the “% decrease, tibial score 3-zone total” value (MMT/MCLT rat model of OA [2]; tacrolimus 30 ng i.a.) was 15%, the “% decrease, tibial score zone 1” value (MMT/MCLT rat model of OA [2]; tacrolimus 30 ng i.a.) was 6% and the “% decrease, tibial score zone 2” value (MMT/MCLT rat model of OA [2]; tacrolimus 30 ng i.a.) was 35%. The “% decrease, tibial score zone 3” value (MMT/MCLT rat model of OA [2]; tacrolimus 30 ng i.a.) was 0%, the “% decrease, total degeneration width” value (MMT/MCLT rat model of OA [2]; tacrolimus 30 ng i.a.) was 10% and the “% decrease, total joint score” value (MMT/MCLT rat model of OA [2]; tacrolimus 30 ng i.a.) was 13%. For the same molecule, the “% decrease, total joint score w/o femur” value (MMT/MCLT rat model of OA [2]; tacrolimus 30 ng i.a.) was 12%, the Non-toxic range (Chondrocyte) [3] was 0.8 to 50 µM and the Non-toxic range (Synovial) (SW982) was 1.5 to 100 µM.
